US20090252717A1, “Compositions and Methods for Treating Polyglutamine-Expansion Neurodegenerative Diseases” (priority 2006, published 2009)
Entries after “also recorded” stand apart in the source; their conditions may differ.

Assays:
[1] = test system: polyQ-AR-induced inhibition of fast axonal transport; test: Vesicle motility assay in isolated squid axoplasm, co-perfusion with polyQ-AR; assay type: cell-based, squid Loligo pealeii
Experimental: (§1) Recombinant Polypeptides. Wild-type androgen receptor and polyQ-AR polypeptides were produced by in vitro transcription/translation (TNT T7-Coupled Reticulocyte Lysate System; Promega, Madison, Wis.) according to manufacturer's protocols. Typically, 1.8 μg of plasmid was transcribed in 50 μl reaction mix. To assess protein levels, parallel reactions were performed incorporating ^35S-labeled methionine (Amersham) or quantitative immunoblots were performed. Protein concentrations were typically 0.2-0.5 nM. In vitro translated androgen receptor has been characterized and shown to be functional (Kuiper, et al. (1993) Biochem. J. 296(Pt 1):161-7). In vitro translation products were briefly centrifuged to eliminate translation machinery, and supernatants frozen in liquid N2 until used.
(§2) Squid Axoplasm. Isolated squid axoplasm represents a unique experimental system to evaluate axonal-specific effects and pathogenic mechanisms. This model was instrumental in the original discovery of kinesin-1 (Brady (1985) Nature 317:73-75, novel pathways for fast axonal transport (Morfini, et al. (2002) supra; Morfini, et al. (2004) supra), and axonal-specific phosphorylation events (Grant & Pant (2000) J. Neurocytol. 29:843-72). Bidirectional membrane-bound organelle movements are observed with properties unchanged from intact axons for hours after removal of plasma membrane (Brady, et al. (1982) Science 218:1129-1131). Video-enhanced microscopic techniques allow quantitative analysis of membrane-bound organelle movement in fast axonal transport. Typical kinesin-dependent transport rates are 1.5-2.0 μm/s, whereas retrograde, cytoplasmic dynein-dependent rates are 1-1.3 μm/s in perfused axoplasms. These rates are maintained with little (<10%) or no reduction for >1 hour after perfusion with control buffer (Brady, et al. (1982) supra). […]
(§3) Motility Studies in Isolated Axoplasm. […] Preparations were analyzed on a ZEISS AXIOMAT with a 100×, 1.3 n.a. objective, and DIC optics. […] Organelle velocities were measured with a Photonics Microscopy C2117 video manipulator (Hamamatsu).

[2] = test system: polyQ-Htt-induced inhibition of fast axonal transport; test: Vesicle motility assay in isolated squid axoplasm, co-perfusion with polyQ-Htt; assay type: cell-based, squid Loligo pealeii; conditions: co-perfused with polyQ-Htt, concentration not given
From the text: (§4) Genes encoding human wild-type Huntingtin (Htt) (i.e., Q20, residues 1-548; Szebenyi, et al. (2003) supra) and polyQ-expanded Htt (i.e., Q46, residues 1-949; Qin, et al. (2004) J. Neurosci. 24(1):269-81) were cloned into the pcDNA.3 vector and produced by in vitro transcription/translation as described for the androgen receptor. Alternatively, shorter constructs (Htt exon1) were expressed in E. coli as GST-tagged proteins.
as §2, with “transport.” for “transport. Typical kinesin-dependent transport rates are 1.5-2.0 μm/s, whereas retrograde, cytoplasmic dynein-dependent rates are 1-1.3 μm/s in perfused axoplasms. These rates are maintained with little (<10%) or no reduction for >1 hour after perfusion with control buffer (Brady, et al. (1982) supra).”
Motility Studies in Isolated Axoplasm. […] Preparations were analyzed on a ZEISS AXIOMAT with a 100×, 1.3 n.a. objective, and DIC optics. […]

[3] = test system: p38α, p38β, JNK2, and JNK3; conditions: cited from earlier work
[4] = test system: wild-type androgen receptor SH-SY5Y cells; test: Neurite outgrowth of differentiated SH-SY5Y cells expressing wild-type androgen receptor; assay type: cell-based, human; conditions: 10 μM
Experimental: (§5) SH-SY5Y Cell Culture and Pharmacological Inhibition. Androgen receptor constructs containing wild-type androgen receptor (Q20) and pathogenic androgen receptor (Q56) tracts were prepared and stably transfected into SH-SY5Y human neuroblastoma cells (Avila, et al. (2003) Exp. Biol. Med. (Maywood) 228:982-90). Wild-type and 902-6 cells (expressing both full-length polyQ-AR and a truncated N-terminal androgen receptor fragment (≈25 kD) that accumulated in cytoplasm) were grown and differentiated (Szebenyi, et al. (2003) supra). Cells were plated at densities of 10,000 cells/cm^2 on 10-cm tissue culture dishes for biochemical studies, and at 3000-5000 cells/cm^2 on 4-well tissue-tech chamber slides (Becton-Dickinson, Mountain View, Calif.) for immunocytochemistry and morphometric studies. For inhibitor studies, cells were differentiated with 10 μM retinoic acid in serum for 5-6 days, and then switched to serum-free medium supplemented with 25 ng/ml BDNF (Alomone Laboratories, Jerusalem, Israel) with or without SB203580 inhibitor. Cell morphologies were evaluated after 3 days in BDNF±SB203580 (Szebenyi, et al. (2003) supra).

[5] = test system: 902-6 SH-SY5Y cells (polyQ-AR); test: Neurite outgrowth of differentiated SH-SY5Y cells expressing polyQ-AR; assay type: cell-based, human
Experimental: as §5

kinesin-1 = test: Kinesin-1 ATPase assay; assay type: biochemical, rat; conditions: in vitro, up to equimolar levels of androgen receptor and kinesin-1
Experimental: Kinesin-1 ATPase Assays. Kinesin-1 basal and microtubule-activated ATPase activity was assayed according to known methods (Morfini, et al. (2002) supra; Tsai, et al. (2000) Mol. Biol. Cell 11:2161-2173). Briefly, purified rat brain kinesin and in vitro-translated androgen receptor constructs were incubated with or without TAXOL-stabilized MAP-free microtubules (1 mg/ml). Assays were started by addition of 1 mCi γ-^32P ATP (ICN Biochemicals, Costa Mesa, Calif.) and incubated for 25 minutes at 37° C. Reactions were stopped with 10% SDS and aliquots spotted on PEI-cellulose plates. Chromatograms were developed in 0.5 M LiCl/1 M formic acid and spots for ^32P and γ-^32P ATP counted to obtain percent of total ^32P recovered as free phosphate.

fast axonal transport [6] = conditions: cited from earlier work
[7] = test system: neurofilament phosphorylation; test: Neurofilament phosphorylation in squid axoplasm (immunoblot, SMI32); assay type: cell-based; conditions: axoplasm incubated with protein
Experimental: Phosphorylation Studies in Squid Axoplasm. Three to four axoplasms were triturated in KB buffer (KB: 10 mM HEPES pH 7.4, 10 mM MgCl2, 1 mM DTT) and aliquoted. Individual reactions with corresponding in vitro-translated androgen receptor constructs were started by adding radiolabeled ATP to 100 μM. Reactions were done in 50 μl, incubated for 20 minutes at room temperature and stopped with 50 μl of 2× sample buffer. Lysates were separated by SDS-PAGE and analyzed by autoradiography. For certain indicated assays, 2 axoplasms per tube were incubated in X/2 buffer for 50 minutes with corresponding in vitro-translated androgen receptor construct, then 50 μl of 2× sample buffer was added and samples analyzed by immunoblot.

fast axonal transport [8] = test: Vesicle motility assay in isolated squid axoplasm, perfusion of recombinant protein alone; assay type: cell-based, squid Loligo pealeii; conditions: protein alone
Experimental: as §1, §4
as §2, with “supra). The lack of permeability barriers allows perfusion of the axoplasm with a variety of effector molecules at known concentrations. Effectors of interest include nucleotides, pharmacological inhibitors, recombinant polypeptides, and antibodies.” for “supra).”
as §3

[9] = co-perfused with polyQ-AR, concentration not given

| Compound | effect on polyQ-AR-induced inhibition of fast axonal transport [1, 9] | effect on polyQ-Htt-induced inhibition of fast axonal transport [2] | effect on basal and microtubule-activated ATPase activity of kinesin-1 (kinesin-1) | mean fast axonal transport rate (fast axonal transport [8]; 20-30 minutes) [μm/sec] | mean fast axonal transport rate (fast axonal transport [8]; 40-50 minutes) [μm/sec] | further results |
| --- | --- | --- | --- | --- | --- | --- |
| CCSCc1ccc2c(c1)c1c3c(c4c5cc(CSCC)ccc5n5c4c1n2[C@H]1C[C@](O)(C(=O)OC)[C@]5(C)O1)CNC3=O [CEP-1347] | prevented the effects of polyQ-Htt and polyQ-AR on fast axonal transport | prevented the effects of polyQ-Htt and polyQ-AR on fast axonal transport |  |  |  |  |
| C[S+]([O-])c1ccc(-c2nc(-c3ccncc3)c(-c3ccc(F)cc3)[nH]2)cc1 (stereo not shown) [SB203580] |  | prevented the effects of polyQ-Htt on fast axonal transport |  |  |  | kinases inhibited [3]: inhibits p38α, p38β, JNK2, and JNK3; effect on polyQ-AR-induced inhibition of fast axonal transport ([1]; 10 μM co-perfused with polyQ-AR): completely blocked the inhibition of fast axonal transport in both anterograde and retrograde directions; neurite outgrowth [4]: increasing neurite outgrowth; proportion of cells with long neurites (>80 μm in length) ([5]; 10 μM or 20 μM): dramatic and dose-dependent increase in the proportion of cells that extended long neurites; also recorded: significant increase in the number of polyQ-AR cells extending long neurites; neurite length / outgrowth ([5]; 10 μM, 3 days BDNF): increasing neurite outgrowth; also recorded: increased in length; neurite length / morphology distribution ([5]; 20 μM, 3 days BDNF): nearly indistinguishable between wild-type and 902-6 cells; also recorded: indistinguishable from untreated wild-type androgen receptor cells; effect on inhibition of neurite outgrowth by polyQ-AR ([5]; added to culture media, 3 days BDNF): overcame inhibition of neurite outgrowth by polyQ-AR; also recorded: reverses inhibition of neurite formation by polyQ-AR |
| C=C1[C@@H](O)[C@@H]2O[C@]3(CC[C@H](/C=C/[C@@H](C)[C@@H]4CC(C)=C[C@@]5(O[C@H](C[C@@](C)(O)C(=O)O)CC[C@H]5O)O4)O3)CC[C@H]2O[C@@H]1[C@@H](O)C[C@H](C)[C@H]1O[C@@]2(CCCCO2)CC[C@H]1C [okadaic acid] | failed to prevent polyQ-AR-induced fast axonal transport inhibition |  |  |  |  |  |
| polyQ-AR: polyglutamine-expanded androgen receptor (Q56) produced by in vitro transcription/translation |  |  | failed to affect either basal or microtubule-activated ATPase activity of kinesin-1 | 1.25±0.03 | 1.08±0.02 | level that inhibits fast axonal transport (fast axonal transport [6]): < 1 nM; SMI32 immunoreactivity [7]: reduced |
| wild-type androgen receptor: wild-type androgen receptor (Q20) produced by in vitro transcription/translation |  |  | not affected | 1.71±0.03 | 1.77±0.04 |  |
